Test results from ChEMBL document CHEMBL3734721 (J Med Chem, 2015).

How the values were obtained:
[1] = Chemical stability of compound in 0.1N NaOH assessed as compound remaining at 10 mg/ml after 1 day; type: physicochemical; settings: read-out: Stability
[2] = biological target: T1, Type-1 angiotensin II receptor (Homo sapiens, UniProt P30556); experiment: Antagonist activity at human wild-type AGTR1 receptor expressed in CHO-K1 cells assessed as angiotensin-2-induced calcium by FDSS assay; type: functional, cell-based
T1 sequence (P30556 whole entry): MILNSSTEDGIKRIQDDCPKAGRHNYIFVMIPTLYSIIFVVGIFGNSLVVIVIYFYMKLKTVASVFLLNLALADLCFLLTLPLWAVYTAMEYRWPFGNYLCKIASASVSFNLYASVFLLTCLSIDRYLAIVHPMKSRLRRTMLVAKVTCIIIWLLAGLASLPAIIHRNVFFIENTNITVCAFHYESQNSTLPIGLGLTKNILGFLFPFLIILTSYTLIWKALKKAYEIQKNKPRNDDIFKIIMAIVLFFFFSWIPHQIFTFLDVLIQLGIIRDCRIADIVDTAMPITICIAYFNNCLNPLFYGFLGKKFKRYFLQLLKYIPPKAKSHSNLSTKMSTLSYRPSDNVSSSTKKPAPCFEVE

[3] = biological target: T2, 5-hydroxytryptamine receptor 2B (Homo sapiens, UniProt P41595); experiment: Agonist activity at human 5-HT2B receptor expressed in CHO-K1 cells assessed as calcium level by FDSS assay; type: functional, cell-based
[4] = Chemical stability of compound in 0.1N HCL assessed as compound remaining at 10 mg/ml after 1 day; type: physicochemical; settings: read-out: Stability
[5] = biological target: T2, 5-hydroxytryptamine receptor 2B; experiment: Antagonist activity at human 5-HT2B receptor expressed in CHO-K1 cells assessed as seretonin-induced calcium level by FDSS assay; type: functional, cell-based
[6] = Chemical stability of compound in buffer at pH 7.4 assessed as compound remaining at 10 mg/ml after 2 days; type: physicochemical; settings: read-out: Stability
[7] = biological target: T3, Muscarinic acetylcholine receptor M2 (Homo sapiens, UniProt P08172); experiment: Agonist activity at human wild-type M2 receptor expressed in CHO-K1 cells assessed as cAMP level by HTRF assay; type: functional, cell-based
T3 sequence (P08172 whole entry): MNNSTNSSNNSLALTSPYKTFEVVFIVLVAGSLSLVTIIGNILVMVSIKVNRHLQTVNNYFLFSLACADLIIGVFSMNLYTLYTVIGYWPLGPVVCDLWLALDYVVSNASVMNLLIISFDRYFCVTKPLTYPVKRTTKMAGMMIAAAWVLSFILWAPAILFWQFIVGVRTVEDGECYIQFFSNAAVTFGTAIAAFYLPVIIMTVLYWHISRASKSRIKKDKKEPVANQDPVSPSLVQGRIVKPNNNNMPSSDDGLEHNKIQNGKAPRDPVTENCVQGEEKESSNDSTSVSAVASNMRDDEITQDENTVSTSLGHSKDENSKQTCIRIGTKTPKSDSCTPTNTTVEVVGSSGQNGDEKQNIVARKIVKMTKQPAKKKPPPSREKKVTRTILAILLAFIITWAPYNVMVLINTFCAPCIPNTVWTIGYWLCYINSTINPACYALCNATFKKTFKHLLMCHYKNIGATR

[8] = biological target: T3, Muscarinic acetylcholine receptor M2; experiment: Antagonist activity at human wild-type M2 receptor expressed in CHO-K1 cells assessed as acetylcholine-induced cAMP by HTRF assay; type: functional, cell-based
[9] = biological target: Muscarinic acetylcholine receptor M3 (Homo sapiens, UniProt P20309); experiment: Agonist activity at human wild-type M3 receptor expressed in CHO-K1 cells assessed as calcium level by FDSS assay; type: functional, cell-based
[10] = biological target: Kappa-type opioid receptor (Homo sapiens, UniProt P41145); experiment: Agonist activity at human wild-type opioid-kappa 1 receptor expressed in CHO-K1 cells assessed as cAMP level by HTRF assay; type: functional, cell-based
[11] = biological target: 5-hydroxytryptamine receptor 1B (Homo sapiens, UniProt P28222); experiment: Agonist activity at human 5-HT1B receptor expressed in CHO-K1 cells assessed as cAMP level by HTRF assay; type: functional, cell-based
Liver microsome [12] = experiment: Metabolic stability in human liver microsomes assessed as GSH adduct formation at 40 uM for 1 hr by LC/MS analysis; type: ADME
Endothelin-1 receptor = biological target: T4, Endothelin-1 receptor (Homo sapiens, UniProt P25101); experiment: Antagonist activity at human wild-type ETA receptor expressed in CHO-K1 cells assessed as endothelin-1-induced calcium by HTRF assay; type: functional, cell-based
T4 sequence (P25101 whole entry): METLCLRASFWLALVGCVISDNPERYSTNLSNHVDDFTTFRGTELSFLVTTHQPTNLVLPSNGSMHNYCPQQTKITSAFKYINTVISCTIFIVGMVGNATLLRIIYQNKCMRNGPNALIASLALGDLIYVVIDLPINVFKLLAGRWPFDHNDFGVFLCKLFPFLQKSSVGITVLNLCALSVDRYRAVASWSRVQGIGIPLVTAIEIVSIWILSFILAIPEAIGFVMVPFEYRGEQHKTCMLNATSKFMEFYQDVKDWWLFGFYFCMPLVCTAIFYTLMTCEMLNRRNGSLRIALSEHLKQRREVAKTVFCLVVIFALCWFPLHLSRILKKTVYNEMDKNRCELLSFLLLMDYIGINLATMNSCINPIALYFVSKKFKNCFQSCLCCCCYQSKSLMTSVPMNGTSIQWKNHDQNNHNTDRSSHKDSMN

Mu-type opioid receptor = Mu-type opioid receptor (Homo sapiens, UniProt P35372); experiment: Antagonist activity at human wild-type opioid-mu receptor expressed in CHO-K1 cells assessed as DAMGO-induced cAMP by HTRF assay; type: functional, cell-based
Vasopressin V1a receptor = Vasopressin V1a receptor (Homo sapiens, UniProt P37288); experiment: Agonist activity at human wild-type AVPR1A receptor expressed in CHO-K1 cells assessed as calcium level by FDSS assay; type: functional, cell-based
Cytochrome P450 2D6 = Cytochrome P450 2D6 (Homo sapiens, UniProt P10635); experiment: Inhibition of human CYP2D6 by LC-MS analysis; type: ADME
[13] = biological target: 5-hydroxytryptamine receptor 7 (Homo sapiens, UniProt P34969); experiment: Agonist activity at human wild-type 5-HT7 receptor expressed in HEK cells assessed as cAMP by HTRF assay; type: functional, cell-based, HEK293
Liver microsome [14] = experiment: Metabolic stability in human liver microsomes assessed as CN adduct formation at 40 uM for 1 hr by LC/MS analysis; type: ADME

T2 sequence (P41595 whole entry): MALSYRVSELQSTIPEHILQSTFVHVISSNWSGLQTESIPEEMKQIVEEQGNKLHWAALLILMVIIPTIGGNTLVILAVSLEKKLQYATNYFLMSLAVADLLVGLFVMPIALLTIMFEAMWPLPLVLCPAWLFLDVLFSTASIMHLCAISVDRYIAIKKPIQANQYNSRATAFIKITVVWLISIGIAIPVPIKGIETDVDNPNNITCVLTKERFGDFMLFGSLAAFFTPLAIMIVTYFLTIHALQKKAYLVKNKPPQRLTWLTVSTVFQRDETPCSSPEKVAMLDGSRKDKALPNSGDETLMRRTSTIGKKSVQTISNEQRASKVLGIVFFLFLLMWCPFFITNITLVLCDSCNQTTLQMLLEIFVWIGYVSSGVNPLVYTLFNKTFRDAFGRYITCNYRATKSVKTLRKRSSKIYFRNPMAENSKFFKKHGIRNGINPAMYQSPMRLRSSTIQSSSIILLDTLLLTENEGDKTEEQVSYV
5-hydroxytryptamine receptor 1B, sequence (P28222 whole entry): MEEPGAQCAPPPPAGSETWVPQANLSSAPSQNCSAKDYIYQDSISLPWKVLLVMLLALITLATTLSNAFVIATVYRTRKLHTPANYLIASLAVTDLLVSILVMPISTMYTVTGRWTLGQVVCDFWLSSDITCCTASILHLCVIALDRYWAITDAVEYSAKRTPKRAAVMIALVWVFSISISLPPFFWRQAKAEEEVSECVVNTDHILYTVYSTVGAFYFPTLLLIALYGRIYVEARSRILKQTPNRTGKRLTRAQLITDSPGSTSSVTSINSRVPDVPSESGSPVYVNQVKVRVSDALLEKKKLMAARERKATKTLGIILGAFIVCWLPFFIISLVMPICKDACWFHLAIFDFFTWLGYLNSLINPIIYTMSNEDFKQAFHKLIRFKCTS
Mu-type opioid receptor, sequence (P35372 whole entry): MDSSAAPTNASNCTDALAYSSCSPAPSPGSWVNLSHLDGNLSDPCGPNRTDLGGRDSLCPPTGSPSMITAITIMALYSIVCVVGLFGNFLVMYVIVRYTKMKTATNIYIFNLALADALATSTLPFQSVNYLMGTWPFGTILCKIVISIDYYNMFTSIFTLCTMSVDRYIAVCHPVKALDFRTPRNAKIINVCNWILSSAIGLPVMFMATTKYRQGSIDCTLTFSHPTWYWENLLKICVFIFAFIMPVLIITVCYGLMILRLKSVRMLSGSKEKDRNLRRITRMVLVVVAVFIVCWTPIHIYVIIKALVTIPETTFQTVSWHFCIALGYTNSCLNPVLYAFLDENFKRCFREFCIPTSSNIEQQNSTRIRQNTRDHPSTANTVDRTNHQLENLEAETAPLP
5-hydroxytryptamine receptor 7, sequence (P34969 whole entry): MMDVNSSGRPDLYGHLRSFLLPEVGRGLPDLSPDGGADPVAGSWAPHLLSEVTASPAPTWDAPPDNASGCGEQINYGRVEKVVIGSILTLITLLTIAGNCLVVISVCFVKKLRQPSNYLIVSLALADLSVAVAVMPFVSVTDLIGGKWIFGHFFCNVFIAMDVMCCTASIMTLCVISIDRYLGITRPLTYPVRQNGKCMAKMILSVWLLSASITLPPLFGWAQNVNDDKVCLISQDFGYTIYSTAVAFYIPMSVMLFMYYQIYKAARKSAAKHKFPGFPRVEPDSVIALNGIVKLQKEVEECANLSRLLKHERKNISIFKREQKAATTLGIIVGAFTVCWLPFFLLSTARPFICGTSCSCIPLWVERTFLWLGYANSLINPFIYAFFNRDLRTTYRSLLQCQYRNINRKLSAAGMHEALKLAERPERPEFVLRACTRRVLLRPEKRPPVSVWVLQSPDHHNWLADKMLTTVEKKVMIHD
Kappa-type opioid receptor, sequence (P41145 whole entry): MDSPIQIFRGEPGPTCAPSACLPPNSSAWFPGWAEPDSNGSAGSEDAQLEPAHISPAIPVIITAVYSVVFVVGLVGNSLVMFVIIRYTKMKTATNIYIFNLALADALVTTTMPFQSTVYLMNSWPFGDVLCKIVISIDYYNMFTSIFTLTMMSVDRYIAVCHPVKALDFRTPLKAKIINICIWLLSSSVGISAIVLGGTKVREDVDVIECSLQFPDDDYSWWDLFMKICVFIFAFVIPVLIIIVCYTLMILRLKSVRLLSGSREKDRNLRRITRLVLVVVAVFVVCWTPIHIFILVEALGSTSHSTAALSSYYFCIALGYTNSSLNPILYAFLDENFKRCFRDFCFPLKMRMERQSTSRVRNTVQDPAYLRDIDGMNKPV
Vasopressin V1a receptor, sequence (P37288 whole entry): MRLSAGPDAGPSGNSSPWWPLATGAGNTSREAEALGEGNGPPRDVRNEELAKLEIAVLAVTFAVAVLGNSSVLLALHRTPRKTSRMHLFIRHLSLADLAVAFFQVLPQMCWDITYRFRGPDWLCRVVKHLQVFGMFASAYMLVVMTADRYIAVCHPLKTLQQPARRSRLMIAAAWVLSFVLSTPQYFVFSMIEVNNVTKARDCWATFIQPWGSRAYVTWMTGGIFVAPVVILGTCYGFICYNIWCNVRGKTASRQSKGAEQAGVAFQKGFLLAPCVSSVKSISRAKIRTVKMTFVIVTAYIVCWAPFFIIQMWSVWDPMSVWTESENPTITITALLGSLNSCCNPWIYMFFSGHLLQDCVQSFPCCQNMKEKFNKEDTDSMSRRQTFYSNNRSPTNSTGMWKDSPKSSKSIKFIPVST
Cytochrome P450 2D6, sequence (P10635 whole entry): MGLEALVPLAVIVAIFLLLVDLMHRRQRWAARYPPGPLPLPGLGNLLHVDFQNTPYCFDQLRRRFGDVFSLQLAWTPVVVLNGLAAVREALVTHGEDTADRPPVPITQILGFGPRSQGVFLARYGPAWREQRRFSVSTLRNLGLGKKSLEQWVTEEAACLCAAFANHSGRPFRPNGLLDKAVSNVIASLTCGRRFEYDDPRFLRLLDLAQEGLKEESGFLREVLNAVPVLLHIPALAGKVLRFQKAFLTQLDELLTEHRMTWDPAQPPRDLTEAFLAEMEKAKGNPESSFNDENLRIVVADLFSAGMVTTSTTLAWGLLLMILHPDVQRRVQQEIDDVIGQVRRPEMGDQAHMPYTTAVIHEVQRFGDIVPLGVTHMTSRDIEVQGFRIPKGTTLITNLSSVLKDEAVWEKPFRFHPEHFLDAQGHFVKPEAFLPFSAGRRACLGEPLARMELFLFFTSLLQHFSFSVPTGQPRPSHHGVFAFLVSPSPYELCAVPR
Muscarinic acetylcholine receptor M3, sequence (P20309 whole entry): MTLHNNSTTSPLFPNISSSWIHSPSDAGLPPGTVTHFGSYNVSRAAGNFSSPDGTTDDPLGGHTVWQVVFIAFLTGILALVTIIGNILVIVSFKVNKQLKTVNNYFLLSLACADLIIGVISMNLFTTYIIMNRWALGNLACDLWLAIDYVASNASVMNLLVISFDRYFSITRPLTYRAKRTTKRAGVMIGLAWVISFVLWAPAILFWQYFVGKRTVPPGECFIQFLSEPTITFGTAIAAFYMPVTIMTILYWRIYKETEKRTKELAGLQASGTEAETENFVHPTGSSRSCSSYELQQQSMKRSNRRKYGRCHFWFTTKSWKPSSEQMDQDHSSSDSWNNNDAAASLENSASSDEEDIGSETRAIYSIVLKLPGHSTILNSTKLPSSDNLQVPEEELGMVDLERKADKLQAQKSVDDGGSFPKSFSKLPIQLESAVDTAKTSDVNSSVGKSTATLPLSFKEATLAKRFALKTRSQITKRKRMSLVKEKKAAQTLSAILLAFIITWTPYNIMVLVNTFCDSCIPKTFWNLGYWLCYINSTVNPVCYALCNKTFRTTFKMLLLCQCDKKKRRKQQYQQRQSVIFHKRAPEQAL

A remaining at 24 h, 10 mg/ml [1] of 89%, an IC50 [2] of over 5.01 µM and an EC50 [3] of over 5.01 µM were found for `CB1C=Cc2c(cccc2OCC(O)CN(C)C)N1` (stereo unspecified) in this work. It also gave a remaining at 24 h, 10 mg/ml [4] of 0%, an IC50 [5] of over 5.01 µM and a remaining at 48 h, 10 mg/ml [6] of 96%. The EC50 [7] was over 5.01 µM, the IC50 [8] was over 5.01 µM and the EC50 [9] was over 5.01 µM. For the same compound, the EC50 [10] was over 5.01 µM, the EC50 [11] was over 5.01 µM and the Stability (Liver microsome [12]) was “Stable”. The IC50 (Endothelin-1 receptor) was over 5.01 µM, the IC50 (Mu-type opioid receptor) was over 5.01 µM and the EC50 (Vasopressin V1a receptor) was over 5.01 µM. The IC50 (Cytochrome P450 2D6) was 2.51 µM, the EC50 [13] was over 5.01 µM and the Stability (Liver microsome [14]) was “Stable”.

A remaining at 24 h, 10 mg/ml [1] of 88%, an IC50 [2] of over 5.01 µM and an EC50 [3] of over 5.01 µM were found for `CB1C=Cc2cccc(OCC(O)CNC(C)C)c2N1` (stereo unspecified) in this work. It also gave a remaining at 24 h, 10 mg/ml [4] of 0%, an IC50 [5] of over 5.01 µM and a remaining at 48 h, 10 mg/ml [6] of 91%. The EC50 [7] was over 5.01 µM, the IC50 [8] was over 5.01 µM and the EC50 [9] was over 5.01 µM. The EC50 [10] was over 5.01 µM, the EC50 [11] was over 5.01 µM and the Stability (Liver microsome [12]) was “Stable”. It also gave an IC50 (Endothelin-1 receptor) of over 5.01 µM, an IC50 (Mu-type opioid receptor) of over 5.01 µM and an EC50 (Vasopressin V1a receptor) of over 5.01 µM. For the same compound, the IC50 (Cytochrome P450 2D6) was 0.398 µM, the EC50 [13] was over 5.01 µM and the Stability (Liver microsome [14]) was “Stable”.
